Reference: US8022080B2, “Small molecules with antiprotozoal activity” (Radix Pharmaceuticals Inc., priority 2009, dated 2011)
Values after ≈ are worked out from the molar mass of the structure shown. Read-outs that look alike come from different tables or passages of the source.

Tests used:
[1] = system: P. falciparum D6 (chloroquine sensitive); experiment: In vitro anti-malarial activity, [3H]hypoxanthine uptake, D6 clone; format: cell-based, Plasmodium falciparum
From the text: (§1) For in vitro toxicological studies, the following cell line was chosen: human adult liver epithelial cells (THLE-3). THLE-3 cells express phenotypic characteristics of normal adult liver epithelial cells and constitute a valuable model for pharmacotoxicological studies.
(§2) Two P. falciparum malaria parasite clones, W2 and D6, from Malaria Research and Reference Reagent Resource Center (MR4), were utilized in susceptibility testing. […] Test compounds were initially dissolved in DMSO and diluted 400 fold in RPMI 1640 culture medium supplemented with 25 mM Hepes, 32 mM NaHCO3 and 10% Albumax I (Gibco, N.Y.). These solutions were subsequently serially diluted two-fold with a Beckman Biomek® 1000 Robot (Fullerton, Calif.) over 11 different concentrations. The parasites were exposed to serial dilutions of each compound for 48 hrs and incubated at 37° C. with 5% O2, 5% CO2 and 90% N2 prior to the addition of [^3H]hypoxanthine. After a further incubation of 18 hrs, parasite DNA was harvested from each microtiter well using Packard Filtermate™ 196 Harvester (Meriden, Conn.) onto glass filters. Uptake of [^3H]hypoxanthine was measured with a Packard TopCount Liquid Scintillation Counter (Packard Instrument Co.).

[2] = system: P. falciparum W2 (chloroquine resistant); experiment: In vitro anti-malarial activity, [3H]hypoxanthine uptake, W2 clone; format: cell-based, Plasmodium falciparum
From the text: as §1, §2

[3] = system: human adult liver epithelial cells (THLE-3); experiment: In vitro toxicity evaluation, Sulforhodamine B; format: cell-based; settings: for IC50: Homo sapiens, read-out: IC50 THLE-3; for Selectivity IC50 (THLE-3)/IC50 (D6): ratio THLE-3 vs D6
Method: as §1
Human adult liver epithelial cells (THLE-3) was maintained in tissue culture flasks in Waymouth's medium (Gibco, N.Y.) supplemented with 10% fetal bovine serum. Toxicity tests were performed in 96-well tissue culture plates using the protein-binding dye Sulforhodamine B. Test compounds were serially diluted and added to empty wells of the 96-well plate. THLE-3 cells in their culture medium were immediately seeded into the wells. Solvent blanks (no compound) were run in each test. After 72 hours under culture conditions cells were fixed to the plate by layering 50% TCA (4° C.) over the growth media in each well to produce a final TCA concentration of 10%. After incubating for one hour at 4° C., cultures were washed five times with tap water and left air-dried. Wells were stained for 30 min. with 0.4% (w/v) SRB in 1% acetic acid and washed four times with 1% acetic acid. Cultures were left air-dried and bound dye was solubilized with 10 mM Tris base (pH 10.5) for 15 min. on a gyratory shaker at room temperature. A Spectra MAX Plus Microtiter Plate Reader (Molecular Devices, Menlo Park, Calif.) was used to measure the optical density at wavelengths of 490-530 nm.

[4] = system: P. berghei; experiment: Blood schizontocidal test in mice, oral; format: in vivo; settings: for toxicity in mice: oral, at the highest dose tested
Method: Drugs were mixed in 0.5% hydroxycellulose 0.1% Tween 80 and administered orally b.i.d. on days 3, 4 and 5 postinfection. CD-1 male or female mice, 5 weeks of age, were infected with 5×10^4 parasitized erythrocytes of Plasmodium berghei KBG-173 mm strain. Blood films were taken on day +6 and weekly thereafter until day +60. Parasitemias were calculated and SD90 value (dose suppressing 90% of the parasites in treated groups compared with the infected non-treated controls) on day +6 postinfection. Mortality data was tabulated for 60 days at which time all mice surviving that were blood film negative were considered cured. […]

[5] = system: P. berghei; experiment: Suppressive blood schizontocidal activity in mice, subcutaneous single dose; format: in vivo; settings: 72 h after infection
Method: Mice were treated with a single dose of the compound administered subcutaneously 72 h after infection. Number of cures is the number of mice surviving, out of five, 60 days postinfection.

[6] = system: Plasmodium berghei KBG-173; experiment: Prophylactic test in mice, oral; format: in vivo; settings: for Mice infected and treated/Mice surviving day 60: oral; for protection from malaria: single dose of 0.5 mg/kg within 2 days pre-infection through 2 days post-infection
Method: Compounds were tested for oral prophylactic activity.
CD-I male or female mice, 5 weeks of age, were infected with 5×10^4 parasitized erythrocytes of Plasmodium berghei KBG-173 mm strain. […]

[7] = oral dose 0.25 mg/kg/day (total dose 0.75 mg/kg)
[8] = oral dose 1.0 mg/kg/day (total dose 3.0 mg/kg)
[9] = oral dose 4.0 mg/kg/day (total dose 12 mg/kg)
[10] = oral dose 16 mg/kg/day (total dose 48 mg/kg)
[11] = oral dose 64 mg/kg/day (total dose 192 mg/kg)
[12] = Plasmodium falciparum, D6; read-out: IC50 D6 Strain
[13] = Plasmodium falciparum, W2; read-out: IC50 W2 Strain
[14] = THLE3, THLE-3 cells, 72 hours, cell growth inhibition
[15] = subcutaneous single dose 1 mg/kg
[16] = subcutaneous single dose 2 mg/kg
[17] = subcutaneous single dose 4 mg/kg
[18] = subcutaneous single dose 8 mg/kg
[19] = subcutaneous single dose 16 mg/kg
[20] = subcutaneous single dose 32 mg/kg
[21] = subcutaneous single dose 64 mg/kg
[22] = subcutaneous single dose 128 mg/kg
[23] = day of treatment 1, dose 0.5 mg/kg
[24] = day of treatment 1, dose 2 mg/kg
[25] = day of treatment 1, dose 8 mg/kg
[26] = day of treatment 1, dose 32 mg/kg
[27] = day of treatment 2, dose 0.5 mg/kg
[28] = day of treatment 2, dose 2 mg/kg
[29] = day of treatment 2, dose 8 mg/kg
[30] = day of treatment 2, dose 32 mg/kg
[31] = day of treatment −1, dose 0.5 mg/kg
[32] = day of treatment −1, dose 2 mg/kg
[33] = day of treatment −1, dose 8 mg/kg
[34] = day of treatment −1, dose 32 mg/kg
[35] = day of treatment −2, dose 0.5 mg/kg
[36] = day of treatment −2, dose 2 mg/kg
[37] = day of treatment −2, dose 8 mg/kg
[38] = day of treatment −2, dose 32 mg/kg

Structure (SMILES)	Selectivity IC50 (THLE-3)/IC50 (D6) [3]	Mice surviving 60 days/Mice infected and treated [4, 7]	Mice surviving 60 days/Mice infected and treated [4, 8]	Mice surviving 60 days/Mice infected and treated [4, 9]	Mice surviving 60 days/Mice infected and treated [4, 10]	Mice surviving 60 days/Mice infected and treated [4, 11]	inhibitory activity against chloroquine sensitive malaria strain (D-6), in words ([1]; D-6 strain)	IC50 [1, 12] [ng/mL]	IC50 [2, 13] [ng/mL]	inhibitory activity against chloroquine resistant malaria strain (W-2), in words ([2]; W-2 strain)	IC50 [3, 14] [ng/mL]	toxicity in mice [4]	Mice surviving 60 days/Mice infected and treated [5, 15]	Mice surviving 60 days/Mice infected and treated [5, 16]	Mice surviving 60 days/Mice infected and treated [5, 17]	Mice surviving 60 days/Mice infected and treated [5, 18]	Mice surviving 60 days/Mice infected and treated [5, 19]	Mice surviving 60 days/Mice infected and treated [5, 20]	Mice surviving 60 days/Mice infected and treated [5, 21]	Mice surviving 60 days/Mice infected and treated [5, 22]	also measured
CCN(CC)CCCC(C)Nc1ccnc2cc(Cl)ccc12 (centres unmarked) [Chloroquine, reference compound]	463	0/7	0/7	2/7	4/7	0/7	–	–	–	–	–	–	–	–	–	–	–	–	–	–	IC50 ([1]; Plasmodium falciparum, D6, read-out: IC50 D6 Strain): 6.3 ng/mL (≈ 0.0197 µM); IC50 ([2]; Plasmodium falciparum, W2, read-out: IC50 W2 Strain): 108 ng/mL (≈ 0.338 µM); IC50 ([3]; THLE3, 72 h): 2920 ng/mL (≈ 9.13 µM)
CC[C@@]12C=Cc3nc4c(OC)c(OC)c5c(c4cc3C1N(C(C)=O)CC1O[C@@H]12)C(=O)[C@](C)(C(=O)OC)N5C(C)=O (some centres unmarked) [Formula II]	7.3 × 10^4	7/7	7/7	7/7	7/7	7/7	equally potent inhibitory activity	0.21	0.23	equally potent inhibitory activity	15400	no mice showed toxicity	4/5	5/5	5/5	5/5	5/5	5/5	5/5	5/5	Mice infected and treated/Mice surviving day 60 [6, 23]: 5/5; Mice infected and treated/Mice surviving day 60 [6, 24]: 5/5; Mice infected and treated/Mice surviving day 60 [6, 25]: 5/5; Mice infected and treated/Mice surviving day 60 [6, 26]: 5/5; Mice infected and treated/Mice surviving day 60 [6, 27]: 5/5; Mice infected and treated/Mice surviving day 60 [6, 28]: 5/5; Mice infected and treated/Mice surviving day 60 [6, 29]: 5/5; Mice infected and treated/Mice surviving day 60 [6, 30]: 5/5; Mice infected and treated/Mice surviving day 60 [6, 31]: 5/5; Mice infected and treated/Mice surviving day 60 [6, 32]: 5/5; Mice infected and treated/Mice surviving day 60 [6, 33]: 5/5; Mice infected and treated/Mice surviving day 60 [6, 34]: 5/5; Mice infected and treated/Mice surviving day 60 [6, 35]: 5/5; Mice infected and treated/Mice surviving day 60 [6, 36]: 5/5; Mice infected and treated/Mice surviving day 60 [6, 37]: 5/5; Mice infected and treated/Mice surviving day 60 [6, 38]: 5/5; protection from malaria [6]: completely protected from malaria
CC[C@]12C=CCN(C(C)=O)C1c1cc3c(nc1C=C2)c(OC)c(OC)c1c3cc(C(=O)SC)n1C(C)=O (some centres unmarked) [Formula I]	5.3 × 10^4	7/7	7/7	7/7	7/7	7/7	equally potent inhibitory activity	0.32	0.29	equally potent inhibitory activity	17100	no mice showed toxicity	4/5	5/5	5/5	5/5	5/5	5/5	5/5	5/5	Mice infected and treated/Mice surviving day 60 [6, 23]: 5/5; Mice infected and treated/Mice surviving day 60 [6, 24]: 5/5; Mice infected and treated/Mice surviving day 60 [6, 25]: 5/5; Mice infected and treated/Mice surviving day 60 [6, 26]: 5/5; Mice infected and treated/Mice surviving day 60 [6, 27]: 5/5; Mice infected and treated/Mice surviving day 60 [6, 28]: 5/5; Mice infected and treated/Mice surviving day 60 [6, 29]: 5/5; Mice infected and treated/Mice surviving day 60 [6, 30]: 5/5; Mice infected and treated/Mice surviving day 60 [6, 31]: 5/5; Mice infected and treated/Mice surviving day 60 [6, 32]: 5/5; Mice infected and treated/Mice surviving day 60 [6, 33]: 5/5; Mice infected and treated/Mice surviving day 60 [6, 34]: 5/5; Mice infected and treated/Mice surviving day 60 [6, 35]: 5/5; Mice infected and treated/Mice surviving day 60 [6, 36]: 5/5; Mice infected and treated/Mice surviving day 60 [6, 37]: 5/5; Mice infected and treated/Mice surviving day 60 [6, 38]: 5/5; protection from malaria [6]: completely protected from malaria
